Measurements from patent publication US20080160099A1, “Methods For Treating or Preventing a Vascular Disease” (THE TRUSTEES OF COLUMBIA UNIVERSITY IN THE CITY OF NEW YORK, priority 2004, published 2008).

Columns and labels:
Format in all cases: biochemical
MMP-2 = target: T1, MMP-2 (Homo sapiens, UniProt P08253); test: MMP-2 activity in lysates of fibroblasts cultured from AAA specimens, gelatin zymography with densitometry; settings: for MMP-2 inhibitory ability (in words): aneurysmal fibroblast MMP-2; for MMP-2 Inhibitory Activity: relative, aneurysmal fibroblast lysates, 1 hour incubation on ice
T1 construct: endogenous in cells; host or cells: fibroblasts cultured from AAA (abdominal aortic aneurysm) specimens
T1 sequence (P08253 110-660): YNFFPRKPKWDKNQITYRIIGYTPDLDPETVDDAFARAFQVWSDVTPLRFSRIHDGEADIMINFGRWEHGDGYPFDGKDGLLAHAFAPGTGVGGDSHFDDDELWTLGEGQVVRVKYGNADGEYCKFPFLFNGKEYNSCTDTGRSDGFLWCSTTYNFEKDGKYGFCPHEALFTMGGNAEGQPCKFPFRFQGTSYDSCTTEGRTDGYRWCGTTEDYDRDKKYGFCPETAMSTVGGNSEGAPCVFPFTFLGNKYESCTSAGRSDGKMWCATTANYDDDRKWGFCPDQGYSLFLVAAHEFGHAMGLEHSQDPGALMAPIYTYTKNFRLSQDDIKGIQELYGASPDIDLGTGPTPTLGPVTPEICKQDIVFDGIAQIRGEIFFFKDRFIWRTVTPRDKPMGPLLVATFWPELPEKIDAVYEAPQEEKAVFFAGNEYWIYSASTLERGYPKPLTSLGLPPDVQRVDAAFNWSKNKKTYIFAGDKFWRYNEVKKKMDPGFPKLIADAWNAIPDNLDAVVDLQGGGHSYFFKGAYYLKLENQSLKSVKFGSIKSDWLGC
Method: Properties of different test compounds against MMP-2 activity of aneurysmal fibroblast origin were examined on 10% polyacrylamide gels containing 1.0 mg/mL of gelatin. Fibroblasts cultured from AAA specimens were lysed using the CellLytic-M lysis/extraction reagent. The protein concentration of each supernatant was determined using the Bradford method using bovine serum albumin as a standard. The aortic fibroblast lysates were incubated alone (control) or with an illustrative Compound or Extract of the Invention at various concentrations for 1 hour on ice. After test compound incubation, equivalent amounts of proteins (30 μg) were mixed with an equal volume of sample buffer (2% SDS, 125 mM Tris-HCL, pH 6.8, 10% glycerol and 0.001% bromophenol blue) and the resulting mixture was subjected to electrophoresis in Trir-glycine el. buffer (25 mMTris pH 8.3, 250 mM Glycine, 0.1% SDS) under denatured but non-reduced conditions. After completion of electrophoresis, the gels were incubated in 2% Triton X-100 for 30 min at room temperature to ensure complete removal of SDS. The gels were then incubated at 37° C. overnight in development buffer (0.005M Tris-HCl (pH 7.5), 0.2MNaCl, 0.005MCaCl2, and 0.02% Brij-35) (Bio-Rad). Gels were stained with 0.05% Coomassie blue R250 (Bio-Rad) for 30 min and destained twice in a mixture of 40% methanol and 10% acetic acid for 20 min. Enzyme activity was detected as unstained bands on a blue background. Quantity One (Bio-Rad Version 4.3.1) was used as a densitometer to quantitate test compound inhibitory ability.

C3a = test: Complement factor C3a levels in normal human serum, with or without HAGG; settings: alone and with HAGG, 30 minutes at 37° C.
Method: (§1) An experiment to measure the complement factors C3a and C5a was carried out at […] for 30 minutes using heat-aggregated gamma globulin (HAGG, at 14 mg/mL), a complement activator with known activity, as a positive control.
(§2) Four separate mixtures were prepared by mixing 8 parts of normal human serum with: (1) 2 parts saline, (2) 1 part saline and 1 part HAGG, (3) 1 part saline and 1 part fucosylated chondroitin sulfate (FCS), or (4) 1 part HAGG and 1 part FCS. These four mixtures were then incubated for 30 minutes at 37° C. and the complement was examined by assaying for levels of C3a and C5a.

C5a = test: Complement factor C5a levels in normal human serum, with or without HAGG; settings: alone and with HAGG, 30 minutes at 37° C.
Method: as §1, §2

total complement = test: Total complement activity (CH50) in human serum; settings: 30 minutes at 37° C.
Method: Blood was collected from a healthy human donor and allowed to clot at room temperature for 60 minutes. The serum was separated from the clotted blood and transferred to a clean tube. Fucosylated chondroitin sulfate (FCS) was incubated in concentrations of 0.1 mg/mL, 0.4 mg/mL and 1 mg/mL for 30 minutes at 37° C. and the complement was examined by assaying total complement activity (CH50). Complement inhibition was about 40% at a FCS concentration of 0.1 mg/mL, about 83% at a concentration of 0.4 mg/mL and complete at a concentration of 1.0 mg/mL.

Row | Compound | MMP-2 inhibitory ability (in words) (MMP-2) | MMP-2 Inhibitory Activity (MMP-2) | inhibitory activity toward C3a (C3a) | inhibitory activity toward C5a (C5a) | Complement inhibition (CH50) (total complement; 0.1 mg/mL) | Complement inhibition (CH50) (total complement; 0.4 mg/mL) | Complement inhibition (CH50) (total complement; 1.0 mg/mL)
1 | Oc1cc(O)c2c(c1)O[C@H](c1cc(O)c(O)c(O)c1)[C@H](O)C2 [(−)-epigallocatechin] | inhibit aneurysmal fibroblast MMP-2 activity | + | – | – | – | – | –
2 | fucosylated chondroitin sulfate | inhibit aneurysmal fibroblast MMP-2 activity | +++ | strong inhibitory activity | strong inhibitory activity | about 40% | about 83% | complete
3 | CCC(C)CCCCCCCCCCC(=O)O (centres unmarked) [12-methyltetradecanoic acid] | inhibit aneurysmal fibroblast MMP-2 activity | + | – | – | – | – | –
